Laboratory results as given in the supplement of paper PMC5908809.

Columns and labels:
NK-YS (IL-2 2.5 ng/mL) [1] = experiment: drug sensitivity score (DSS) (DSS units); higher = more sensitive; extreme values may be limits of the assay; conditions: 72 h
SNK-6 (IL-2 2.5 ng/mL) [2] = experiment: as above; conditions: 72 h
[3] = tested on: normal primary NK cells, pool 1 (3 donors) (IL-2 2.5 ng/mL); experiment: as above; conditions: 72 h
KAI3 (IL-2 2.5 ng/mL) [4] = experiment: as above; conditions: 72 h
[5] = tested on: normal primary NK cells, pool 2 (3 donors) (IL-2 2.5 ng/mL); experiment: as above; conditions: 72 h
[6] = tested on: normal primary NK cells, pool 3 (3 donors) (IL-2 2.5 ng/mL); experiment: as above; conditions: 72 h
KHYG-1 (IL-2 2.5 ng/mL) [7] = experiment: as above; conditions: 72 h
[8] = tested on: normal primary NK cells, pool 1 (3 donors), resting (IL-2 0 ng/mL); experiment: as above; conditions: 72 h
DERL-7 (IL-2 2.5 ng/mL) [9] = experiment: as above; conditions: 72 h
IMC-1 (IL-2 20 ng/mL) [10] = experiment: as above; conditions: 72 h
YT (IL-2 2.5 ng/mL) [11] = experiment: as above; conditions: 72 h
NKL (IL-2 2.5 ng/mL) [12] = experiment: as above; conditions: 72 h
NK-92 (IL-2 2.5 ng/mL) [13] = experiment: as above; conditions: 72 h
NK-YS (IL-2 2.5 ng/mL) [14] = experiment: percent inhibition of viability; higher = more inhibition; conditions: 72 h
SNK-6 (IL-2 2.5 ng/mL) [15] = experiment: as above; conditions: 72 h
[16] = tested on: normal primary NK cells, pool 1 (3 donors) (IL-2 2.5 ng/mL); experiment: as above; conditions: 72 h
KAI3 (IL-2 2.5 ng/mL) [17] = experiment: as above; conditions: 72 h
[18] = tested on: normal primary NK cells, pool 2 (3 donors) (IL-2 2.5 ng/mL); experiment: as above; conditions: 72 h
[19] = tested on: normal primary NK cells, pool 3 (3 donors) (IL-2 2.5 ng/mL); experiment: as above; conditions: 72 h
KHYG-1 (IL-2 2.5 ng/mL) [20] = experiment: as above; conditions: 72 h
[21] = tested on: normal primary NK cells, pool 1 (3 donors), resting (IL-2 0 ng/mL); experiment: as above; conditions: 72 h
DERL-7 (IL-2 2.5 ng/mL) [22] = experiment: as above; conditions: 72 h
IMC-1 (IL-2 20 ng/mL) [23] = experiment: as above; conditions: 72 h
YT (IL-2 2.5 ng/mL) [24] = experiment: as above; conditions: 72 h
NKL (IL-2 2.5 ng/mL) [25] = experiment: as above; conditions: 72 h
NK-92 (IL-2 2.5 ng/mL) [26] = experiment: as above; conditions: 72 h
[27] = tested on: normal NK cells expanded with K562-aAPC; experiment: as above; conditions: 72 h, IL-2 2.5 ng/mL
Procedure: (§1)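 Drug sensitivity and resistance testing on K562-aAPC-expanded normal NK cells: 5 concentrations (10-fold steps over a 10,000-fold range), 72 h at 37 °C, viability by CellTiter-Glo normalised to DMSO and benzethonium chloride controls; DSS from the fitted curve.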

[28] = tested on: normal NK cells expanded with K562-aAPC; experiment: drug sensitivity score (DSS) (DSS units); higher = more sensitive; extreme values may be limits of the assay; conditions: 72 h; IL-2 2.5 ng/mL
Procedure: as §1

CC(C)(C#N)c1cc(Cn2cncn2)cc(C(C)(C)C#N)c1 [Anastrozole] (max concentration tested 10000 nM)
Conditions | drug sensitivity score
DERL-7 (IL-2 2.5 ng/mL) [9] | 0
IMC-1 (IL-2 20 ng/mL) [10] | 0
KAI3 (IL-2 2.5 ng/mL) [4] | 0
KHYG-1 (IL-2 2.5 ng/mL) [7] | 0
NK-92 (IL-2 2.5 ng/mL) [13] | 0
NK-YS (IL-2 2.5 ng/mL) [1] | 0
NKL (IL-2 2.5 ng/mL) [12] | 0
SNK-6 (IL-2 2.5 ng/mL) [2] | 0
YT (IL-2 2.5 ng/mL) [11] | 0
[3] | 0
[5] | 0
[6] | 0
[8] | 0
[28] | 0

percent inhibition of viability [%]
Conditions | 1 nM | 10 nM | 100 nM | 1000 nM | 10000 nM
DERL-7 (IL-2 2.5 ng/mL) [22] | 1.86 | 1.72 | 1.5 | 4.62 | 1.85
IMC-1 (IL-2 20 ng/mL) [23] | -2.19 | -4.02 | -0.27 | -6.87 | -2.18
KAI3 (IL-2 2.5 ng/mL) [17] | 4.34 | -3.23 | 4.57 | -3.97 | 4.8
KHYG-1 (IL-2 2.5 ng/mL) [20] | -3.64 | -8.98 | -2.57 | -9.89 | -0.45
NK-92 (IL-2 2.5 ng/mL) [26] | 2.62 | -14.9 | -4.14 | -11.2 | 0.08
NK-YS (IL-2 2.5 ng/mL) [14] | -0.21 | -1.51 | -0.63 | -2.69 | -1.18
NKL (IL-2 2.5 ng/mL) [25] | -3.4 | -8.92 | 1.02 | -7.99 | 1.34
SNK-6 (IL-2 2.5 ng/mL) [15] | -1.06 | 23.5 | 22.5 | -18.6 | 2.15
YT (IL-2 2.5 ng/mL) [24] | 6.09 | -6.8 | 6.6 | -5.12 | 8.27
[16] | -5.66 | -8.98 | -13.5 | 1.93 | -12.4
[18] | -14.1 | -1.97 | -6.31 | -1.14 | -6.99
[19] | -11.2 | -0.62 | -6.71 | -6.71 | -5.25
[21] | 0.43 | -12.5 | -9.34 | -4.56 | 1.51
[27] | -3.07 | -7.42 | -9.56 | -10 | -14.1

O=C1CCC(N2C(=O)c3ccccc3C2=O)C(=O)N1 (stereo not drawn) [Thalidomide] (max concentration tested 10000 nM)
Conditions | drug sensitivity score
DERL-7 (IL-2 2.5 ng/mL) [9] | 0
IMC-1 (IL-2 20 ng/mL) [10] | 0.03
KAI3 (IL-2 2.5 ng/mL) [4] | 0.11
KHYG-1 (IL-2 2.5 ng/mL) [7] | 0.01
NK-92 (IL-2 2.5 ng/mL) [13] | 0.43
NK-YS (IL-2 2.5 ng/mL) [1] | 0.86
NKL (IL-2 2.5 ng/mL) [12] | 0.91
SNK-6 (IL-2 2.5 ng/mL) [2] | 0
YT (IL-2 2.5 ng/mL) [11] | 1.05
[3] | 0
[5] | 0
[6] | 0
[8] | 0
[28] | 0.4

percent inhibition of viability [%]
Conditions | 1 nM | 10 nM | 100 nM | 1000 nM | 10000 nM
DERL-7 (IL-2 2.5 ng/mL) [22] | -4.35 | 1.66 | 0.7 | -4.56 | -10.4
IMC-1 (IL-2 20 ng/mL) [23] | -2.34 | -2.83 | 3.91 | 5.3 | 12
KAI3 (IL-2 2.5 ng/mL) [17] | -9.63 | -11.1 | -3.59 | -3.95 | 14.6
KHYG-1 (IL-2 2.5 ng/mL) [20] | -4.12 | -6.62 | 0.67 | 6.18 | 10.3
NK-92 (IL-2 2.5 ng/mL) [26] | -15.9 | -8.74 | -9.71 | 7.78 | 12.7
NK-YS (IL-2 2.5 ng/mL) [14] | -5.98 | -8.88 | -3.38 | 8.1 | 15.2
NKL (IL-2 2.5 ng/mL) [25] | -18.5 | -7.52 | -3.52 | 13.7 | 11.1
SNK-6 (IL-2 2.5 ng/mL) [15] | -14.3 | 8.65 | -18.4 | -31.5 | -27.8
YT (IL-2 2.5 ng/mL) [24] | -9.26 | -7.23 | -5.25 | -0.15 | 26.5
[16] | 0.86 | -2.62 | 18.8 | -1.53 | 5.13
[18] | -7.68 | -2.29 | 0.16 | 8.57 | 7.78
[19] | -10.6 | -12.8 | -2.32 | 1.72 | 4.5
[21] | 6 | -5.13 | 20 | -1.84 | -5.2
[27] | -14.8 | -5.18 | -6.96 | 6.59 | 12.7
